Results as given in article PMC8623273, “Novel N7-Arylmethyl Substituted Dinucleotide mRNA 5′ cap Analogs: Synthesis and Evaluation as Modulators of Translation” (Pharmaceutics, 2021).
Like-named read-outs stand apart in the source and are kept apart here.

What was measured:
[1] = system: cap-dependent translation in rabbit reticulocyte lysate (RRL); assay: inhibition of cap-dependent translation in rabbit reticulocyte lysate (RRL); type: biochemical
Experimental: After determining the affinity for eIF4E and susceptibility to DcpS, we evaluated the analogs as inhibitors of protein translation in rabbit reticulocyte lysates (RRL). To enable better assessment of how these two factors influenced inhibitory properties, we performed two sets of experiments. In the first set, cap analogs were added to RRL along with luciferase-encoding reporter mRNA followed by a protein activity (luminescence) readout after 1 h, whereas in the second set cap analogs were additionally preincubated in RRL for 1 h prior to addition of mRNA. Based on previously reported findings, we expected that in the second experimental setup, cap analogs susceptible to DcpS would lose their inhibitory potency, whereas compounds resistant to DcpS would remain similarly active.
The ability of the N7-benzyl cap analogues to inhibit cap-dependent translation was assayed in a rabbit reticulocyte lysate (RRL) system. Two sets of experiments were performed. In both variants, in vitro translation reactions (10 μL total volume) contained a tested cap analog (inhibitor) and an in vitro transcribed, ARCA-capped mRNA encoding Gaussia luciferase at 1 μg/mL final concentration. In experimental variant A, cap analogues at concentrations in the range of 0 to 64 μM and mRNA were added to the reaction mixture at the same time. Reactions were incubated at 30 °C for 60 min and then stopped by freezing in liquid nitrogen. In experimental variant B, the cap analogues were added at concentrations in the range of 0 to 160 μM. Reactions were pre-incubated at 30 °C for 60 min prior to addition of mRNA; after addition of mRNA incubation was continuous at 30 °C for 60 min and then stopped by freezing in liquid nitrogen. To detect luminescence from Gaussia luciferase, 50 μL of 10 ng/mL h-coelenterazine (NanoLight, Norman, OK, USA) in PBS was added to 10 μL of RRL and the luminescence was measured with a Synergy H1 (BioTek, Winooski, VT, USA) microplate reader.

[2] = target: eIF4E (Mus musculus, UniProt P63073); assay: fluorescence anisotropy (FA) competition assay with eIF4E; type: binding; settings: Table S2; for EC50: 25 °C, probe m^7GTP-triazol-FAM 10 nM, eIF4E 100 nM; for Kd: calculated from EC50
Sequence of eIF4E (P63073 whole entry): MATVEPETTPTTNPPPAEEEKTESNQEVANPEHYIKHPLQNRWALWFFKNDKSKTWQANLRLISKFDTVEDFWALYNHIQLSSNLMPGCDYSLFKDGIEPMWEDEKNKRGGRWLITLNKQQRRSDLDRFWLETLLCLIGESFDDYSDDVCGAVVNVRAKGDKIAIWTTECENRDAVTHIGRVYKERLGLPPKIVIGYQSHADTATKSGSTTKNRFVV
From the text: The KD values determined from the high-throughput assay were in qualitative agreement with data from time-synchronized fluorescence quenching titration, justifying the use of the former for evaluation of the whole set of caps. […] To additionally verify the binding affinity data (especially for 1q and 1r, as mentioned above), we determined the binding affinities for all analogs using another independent assay, based on fluorescence anisotropy. The KD data determined by this method correlated very well with the results reported above (Table S2, Figure S2).
Fractions of the compounds were independently tested using a different method based on fluorescence anisotropy (FA). These experiments were performed on a Synergy™ H1 plate reader in 96-well, black, non-binding assay plates. Each well contained appropriate buffer (50 mM HEPES/KOH pH 7.2, 100 mM KCl, 0.5 mM EDTA i 1 mM DTT), the fluorescent probe m^7GTP-triazol-FAM (10 nM), substrate (in a 2.08-fold dilution, starting from 60 μM) and protein eIF4E (100 nM). The m^7GTP-triazol-FAM was synthesized as describer earlier. All measurements were performed at 25 °C. Determined EC50 values were means ± SD of three independent experiments. The dissociation constants KD were then calculated using the equation described by Nikolovska-Coleska as described earlier.

[3] = target: T1, hDcpS (Homo sapiens, UniProt Q96C86); type: in vitro ADME; settings: 100 μM compound, 20 nM hDcpS; for hDcpS Assay: fraction of the cap remaining after 1 h incubation with DcpS: 37 °C
T1 sequence (Q96C86 1-337): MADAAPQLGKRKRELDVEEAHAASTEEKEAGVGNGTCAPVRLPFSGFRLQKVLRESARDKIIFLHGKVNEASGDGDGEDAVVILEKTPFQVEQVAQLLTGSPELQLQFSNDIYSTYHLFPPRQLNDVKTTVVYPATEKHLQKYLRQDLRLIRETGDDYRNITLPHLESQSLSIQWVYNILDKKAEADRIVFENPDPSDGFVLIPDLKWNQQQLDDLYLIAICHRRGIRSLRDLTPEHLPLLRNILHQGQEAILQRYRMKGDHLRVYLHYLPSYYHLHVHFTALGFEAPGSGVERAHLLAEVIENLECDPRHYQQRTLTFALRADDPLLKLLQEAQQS
Experimental: Susceptibility to decapping scavenger (DcpS) is one of the factors that could potentially influence the cellular stability of mono- and dinucleotide cap analogs designed as translational inhibitors. Therefore, we studied the susceptibility of arylmethyl-modified dinucleotides to DcpS. The compounds (at 100 μM concentration each) were incubated with 20 nM of hDcpS, and the hydrolysis progress at different time points was analyzed via RP HPLC and compared to m^7GpppG (Figure 4 and Figure S3).
The enzymatic activity of DcpS was assayed at 37 °C in 50 mM Tris∙HCl, pH 7.6 containing 200 mM KCl, 0.5 mM EDTA. DcpS cleavage assays were carried out with 100 μM of the tested compound and 20 nM (monomer) of the hDcpS. Enzymatic reaction progress was examined after 30, 60 and 180 min. As a control, a sample was examined before adding enzyme. Aliquots of 15 μL were terminated by heat inactivation of the enzyme for 3 min at 98 °C. The samples were analyzed via RP HPLC equipped with a Supelcosil LC-18-T column (4.6 × 250 mm, 5 μm, flow rate 1.3 mL/min).

[4] = RRL, cap analog and mRNA added at the same time (no pre-incubation), 60 min, 30 °C, read-out: Translation Inhibition IC50
[5] = cap analog incubated in RRL for 1 h prior to adding mRNA, read-out: Translation Inhibition IC50 (value in brackets) (converted)

SMILES	IC50 [1, 4] [µM]	IC50 [1, 5] [µM]	EC50 [2] [µM]	Kd [2] [µM]	susceptibility to hDcpS (in words) [3]	hDcpS Assay: fraction of the cap remaining after 1 h incubation with DcpS [3]	conversion after 1 h of incubation with hDcpS [3]
CO[C@@H]1[C@H](O)[C@@H](COP(=O)(O)OP(=O)([O-])OP(=O)(O)OC[C@H]2O[C@@H](n3cnc4c(=O)[nH]c(N)nc43)[C@H](O)[C@@H]2O)O[C@H]1n1c[n+](Cc2ccccc2)c2c(O)nc(N)nc21 [1q, Bn^7GmpppG]	3.7 ± 0.5	8.2	0.18 ± 0.03	0.04 ± 0.011	resistant to hDcpS	0.97	–
CC(C)c1ccc(C[n+]2cn([C@@H]3O[C@H](COP(=O)(O)OP(=O)([O-])OP(=O)(O)OC[C@H]4O[C@@H](n5cnc6c(=O)[nH]c(N)nc65)[C@H](O)[C@@H]4O)[C@@H](O)[C@H]3O)c3nc(N)nc(O)c32)cc1 [1e, 4-iPrBn^7GpppG]	15.2 ± 3.1	–	1.3 ± 0.09	0.444 ± 0.033	Lower susceptibility to hydrolysis	0.94	–
Nc1nc(O)c2c(n1)n([C@@H]1O[C@H](COP(=O)(O)OP(=O)([O-])OP(=O)(O)OC[C@H]3O[C@@H](n4cnc5c(=O)[nH]c(N)nc54)[C@H](O)[C@@H]3O)[C@@H](O)[C@H]1O)c[n+]2Cc1ccc(F)cc1 [1g, 4-F-Bn^7GpppG]	6 ± 0.9	21.4	0.24 ± 0.08	0.064 ± 0.031	–	0.76	~70%
Nc1nc(O)c2c(n1)n([C@@H]1O[C@H](COP(=O)(O)OP(=O)([O-])OP(=O)(O)OC[C@H]3O[C@@H](n4cnc5c(=O)[nH]c(N)nc54)[C@H](O)[C@@H]3O)[C@@H](O)[C@H]1O)c[n+]2Cc1ccccc1 [1a, Bn^7GpppG]	7.4 ± 1.4	9.6	0.27 ± 0.02	0.074 ± 0.023	–	0.51	approximately 50%
Nc1nc(O)c2c(n1)n([C@@H]1O[C@H](COP(=O)(O)OP(=O)([O-])OP(=O)(O)OC[C@H]3O[C@@H](n4cnc5c(=O)[nH]c(N)nc54)[C@H](O)[C@@H]3O)[C@@H](O)[C@H]1O)c[n+]2Cc1ccc(C(F)(F)F)cc1 [1l, 4-CF3-Bn^7GpppG]	9.7 ± 2	40	0.59 ± 0.04	0.194 ± 0.017	Lower susceptibility to hydrolysis	0.87	–
Cc1cccc(C[n+]2cn([C@@H]3O[C@H](COP(=O)(O)OP(=O)([O-])OP(=O)(O)OC[C@H]4O[C@@H](n5cnc6c(=O)[nH]c(N)nc65)[C@H](O)[C@@H]4O)[C@@H](O)[C@H]3O)c3nc(N)nc(O)c32)c1 [1c, 3-MeBn^7GpppG]	6.6 ± 0.8	8.2	0.67 ± 0.02	0.222 ± 0.008	very slowly hydrolyzed	0.84	–
Nc1nc(O)c2c(n1)n([C@@H]1O[C@H](COP(=O)(O)OP(=O)([O-])OP(=O)(O)OC[C@H]3O[C@@H](n4cnc5c(=O)[nH]c(N)nc54)[C@H](O)[C@@H]3O)[C@@H](O)[C@H]1O)c[n+]2Cc1ccc(Cl)cc1 [1h, 4-Cl-Bn^7GpppG]	18.7 ± 3	18.7 ± 3.6	0.34 ± 0.14	0.102 ± 0.053	–	0.67	~70%
Nc1nc(O)c2c(n1)n([C@@H]1O[C@H](COP(=O)(O)OP(=O)([O-])OP(=O)(O)OC[C@H]3O[C@@H](n4cnc5c(=O)[nH]c(N)nc54)[C@H](O)[C@@H]3O)[C@@H](O)[C@H]1O)c[n+]2Cc1ccc(F)c(F)c1 [1k, 3,4-di-F-Bn^7GpppG]	8.2 ± 1.1	21.4	0.88 ± 0.08	0.301 ± 0.03	–	0.70	~70%
Nc1nc(O)c2c(n1)n([C@@H]1O[C@H](COP(=O)(O)OP(=O)([O-])OP(=O)(O)OC[C@H]3O[C@@H](n4cnc5c(=O)[nH]c(N)nc54)[C@H](O)[C@@H]3O)[C@@H](O)[C@H]1O)c[n+]2Cc1ccc(Br)cc1 [1i, 4-Br-Bn^7GpppG]	6.4 ± 1	22.2	0.21 ± 0.01	0.052 ± 0.003	–	0.60	~70%
CO[C@@H]1[C@H](O)[C@@H](COP(=O)(O)OP(=O)([O-])OP(=O)(O)OC[C@H]2O[C@@H](n3cnc4c(=O)[nH]c(N)nc43)[C@H](O)[C@@H]2O)O[C@H]1n1c[n+](Cc2ccc(Cl)cc2)c2c(O)nc(N)nc21 [1r, 4-Cl-Bn^7GmpppG]	6 ± 0.9	–	0.19 ± 0.02	0.045 ± 0.007	resistant to hDcpS	0.99	–
Cn1c[n+]([C@@H]2O[C@H](COP(=O)(O)OP(=O)([O-])OP(=O)(O)OC[C@H]3O[C@@H](n4cnc5c(=O)[nH]c(N)nc54)[C@H](O)[C@@H]3O)[C@@H](O)[C@H]2O)c2nc(N)[nH]c(=O)c21 [m^7GpppG, reference compound]	11.4 ± 2.4	30.1	0.41 ± 0.01	0.127 ± 0.005	–	0.49	approximately 50%
Nc1nc(O)c2c(n1)n([C@@H]1O[C@H](COP(=O)(O)OP(=O)([O-])OP(=O)(O)OC[C@H]3O[C@@H](n4cnc5c(=O)[nH]c(N)nc54)[C@H](O)[C@@H]3O)[C@@H](O)[C@H]1O)c[n+]2Cc1ccc([N+](=O)[O-])cc1 [1n, 4-NO2-Bn^7GpppG]	28.2 ± 7.5	–	0.52 ± 0.12	0.168 ± 0.043	–	0.75	~70%
